The text below walks through data of ChEMBL document CHEMBL5724914, “Linking interpersonal differences in gut microbiota composition and drug biotransformation activity” (2024).

Data set [1] can be described thus: The drug is tested on Z-019 corresponding to rat gut metagenome with ENA study accession number: PRJEB37062 and ENA sample accession number: ERS12561818 for biotransformation under anaerobic condition. The drug concentrations were measured over 9 timepoints collected between 0 and 24 hours of incubation by liquid-chromatography-coupled mass spectrometry (LC–MS). The note with it: 2 µM.

Data set [2] is described as follows: The drug is tested on Z-017 corresponding to mouse gut metagenome with ENA study accession number: PRJEB37062 and ENA sample accession number: ERS12561816 for biotransformation under anaerobic condition. The drug concentrations were measured over 9 timepoints collected between 0 and 24 hours of incubation by liquid-chromatography-coupled mass spectrometry (LC–MS). The note with it: 2 µM.

Data set [3] is described as follows: The drug is tested on Z-007 corresponding to rat gut metagenome with ENA study accession number: PRJEB37062 and ENA sample accession number: ERS12561807 for biotransformation under anaerobic condition. The drug concentrations were measured over 9 timepoints collected between 0 and 24 hours of incubation by liquid-chromatography-coupled mass spectrometry (LC–MS). Conditions: 2 µM.

Data set [4] in a line: The drug is tested on Z-003 corresponding to pig gut metagenome with ENA study accession number: PRJEB37062 and ENA sample accession number: ERS12561803 for biotransformation under anaerobic condition. The drug concentrations were measured over 9 timepoints collected between 0 and 24 hours of incubation by liquid-chromatography-coupled mass spectrometry (LC–MS). The note with it: 2 µM.

Data set [5] in a line: The drug is tested on Z-002 corresponding to rabbit gut metagenome with ENA study accession number: PRJEB37062 and ENA sample accession number: ERS12561802 for biotransformation under anaerobic condition. The drug concentrations were measured over 9 timepoints collected between 0 and 24 hours of incubation by liquid-chromatography-coupled mass spectrometry (LC–MS). The note with it: 2 µM.

Data set [6] in a line: The drug is tested on WLS-240 corresponding to human gut metagenome with ENA study accession number: PRJEB37062 and ENA sample accession number: ERS12561773 for biotransformation under anaerobic condition. The drug concentrations were measured over 9 timepoints collected between 0 and 24 hours of incubation by liquid-chromatography-coupled mass spectrometry (LC–MS). The note with it: 2 µM.

The nature of data set [7]: The drug is tested on WLS-098 corresponding to human gut metagenome with ENA study accession number: PRJEB37062 and ENA sample accession number: ERS12561754 for biotransformation under anaerobic condition. The drug concentrations were measured over 9 timepoints collected between 0 and 24 hours of incubation by liquid-chromatography-coupled mass spectrometry (LC–MS). The note with it: 2 µM.

Data set [8] in a line: The drug is tested on WLS-073 corresponding to human gut metagenome with ENA study accession number: PRJEB37062 and ENA sample accession number: ERS12561749 for biotransformation under anaerobic condition. The drug concentrations were measured over 9 timepoints collected between 0 and 24 hours of incubation by liquid-chromatography-coupled mass spectrometry (LC–MS). The note with it: 2 µM.

The nature of data set [9]: The drug is tested on WLS-069 corresponding to human gut metagenome with ENA study accession number: PRJEB37062 and ENA sample accession number: ERS12561748 for biotransformation under anaerobic condition. The drug concentrations were measured over 9 timepoints collected between 0 and 24 hours of incubation by liquid-chromatography-coupled mass spectrometry (LC–MS). The note with it: 2 µM.

For data set [10] the following is noted: human gut metagenome, 24 h, 2 µM.
The conditions of data set [11]: human gut metagenome, 24 h, 2 µM. This is another data set of the same source.
The conditions of data set [12]: human gut metagenome, 24 h, 2 µM. This is another data set of the same source.
The conditions of data set [13]: human gut metagenome, 24 h, 2 µM. The source holds these as a separate data set.
The conditions of data set [14]: human gut metagenome, 24 h, 2 µM. This is another data set of the same source.
For data set [15] the following is noted: human gut metagenome, 24 h, 2 µM. This is another data set of the same source.
For data set [16] the following is noted: human gut metagenome, 24 h, 2 µM. This is another data set of the same source.
The conditions of data set [17]: human gut metagenome, 24 h, 2 µM. This is another data set of the same source.
The conditions of data set [18]: human gut metagenome, 24 h, 2 µM. This is another data set of the same source.
For data set [19] the following is noted: human gut metagenome, 24 h, 2 µM. The source holds these as a separate data set.
The conditions of data set [20]: human gut metagenome, 24 h, 2 µM. This is another data set of the same source.
Further: call rule not given here.

For the compound `CC1Cc2ccccc2N1NC(=O)c1ccc(Cl)c(S(N)(=O)=O)c1` (stereo not given) [INDAPAMIDE], the “Bacterial Biotransformation” value in [1], in [2], in [3], in data set [4], in data set [5] and in [6] was “Compound NOT metabolized” in each case. In addition, the “Bacterial Biotransformation” value in data set [7], in [8], in [9], in data set [10], in data set [11] and in data set [12] was “Compound NOT metabolized” in each case. The “Bacterial Biotransformation” value in data set [13], in data set [14], in data set [15], in [16], in data set [17] and in [18] was “Compound NOT metabolized” each time. Further, the “Bacterial Biotransformation” value in data set [19] and in [20] was “Compound NOT metabolized” each time.

On to `CN1CCN2c3ccccc3Cc3ccccc3C2C1` (stereo not given) [MIANSERIN], for which the “Bacterial Biotransformation” value is listed as “Compound NOT metabolized” in data set [1]; “Compound NOT metabolized” in data set [2]; “Compound NOT metabolized” in [3]; “Compound metabolized” in data set [4]; “Compound metabolized” in data set [5]; “Compound NOT metabolized” in data set [6]. The “Bacterial Biotransformation” value in data set [7] was “Compound metabolized”; in data set [8], “Compound NOT metabolized”; in data set [9], “Compound metabolized”; in data set [10], “Compound NOT metabolized”; in data set [11] it was “Compound NOT metabolized”; in data set [12], “Compound NOT metabolized”. Further, the “Bacterial Biotransformation” value in data set [13] was “Compound metabolized”; in data set [14], “Compound metabolized”; in data set [15], “Compound metabolized”; in data set [16] it was “Compound NOT metabolized”; in data set [17] it was “Compound metabolized”; in data set [18], “Compound metabolized”. Moreover, the “Bacterial Biotransformation” value in data set [19] and in data set [20] was “Compound metabolized” in each case.

As to `CC12CC3CC(C)(C1)CC(N)(C3)C2` [MEMANTINE], the “Bacterial Biotransformation” value in data set [1], in data set [2], in data set [3], in data set [4], in [5] and in [6] was “Compound NOT metabolized” in each case. The “Bacterial Biotransformation” value in [7], in [8], in data set [9], in data set [10], in data set [11] and in [12] was “Compound NOT metabolized” each time. For the same compound, the “Bacterial Biotransformation” value in [13], in data set [14], in data set [15], in data set [16], in data set [17] and in data set [18] was “Compound NOT metabolized” in each case. Moreover, the “Bacterial Biotransformation” value in data set [19] and in data set [20] was “Compound NOT metabolized” throughout.

With `CC#C[C@]1(O)CC[C@H]2[C@@H]3CCC4=CC(=O)CCC4=C3[C@@H](c3ccc(N(C)C)cc3)C[C@@]21C` [MIFEPRISTONE], the “Bacterial Biotransformation” value is “Compound NOT metabolized” in [1]; “Compound NOT metabolized” in [2]; “Compound NOT metabolized” in data set [3]; “Compound metabolized” in [4]; “Compound metabolized” in [5]; “Compound metabolized” in data set [6]. The “Bacterial Biotransformation” value is given as “Compound NOT metabolized” in [7]; “Compound NOT metabolized” in [8]; “Compound metabolized” in [9]; “Compound metabolized” in data set [10]; “Compound NOT metabolized” in data set [11]; “Compound metabolized” in [12]. The “Bacterial Biotransformation” value is listed as “Compound metabolized” in [13]; “Compound metabolized” in data set [14]; “Compound NOT metabolized” in data set [15]; “Compound metabolized” in data set [16]; “Compound NOT metabolized” in data set [17]; “Compound metabolized” in [18]. Also, the “Bacterial Biotransformation” value in data set [19] and in data set [20] was “Compound metabolized” throughout.

For `COc1ccc2c(c1)c(CC(=O)O)c(C)n2C(=O)c1ccc(Cl)cc1` [INDOMETHACIN], the “Bacterial Biotransformation” value in [1] is “Compound NOT metabolized”; in [2], “Compound NOT metabolized”; in data set [3], “Compound NOT metabolized”; in data set [4], “Compound NOT metabolized”; in data set [5], “Compound NOT metabolized”; in data set [6], “Compound metabolized”. Besides, the “Bacterial Biotransformation” value in data set [7], in data set [8], in data set [9], in data set [10], in [11] and in data set [12] was “Compound metabolized” in each case. The “Bacterial Biotransformation” value in data set [13], in data set [14], in [15], in [16], in data set [17] and in data set [18] was “Compound metabolized” throughout. The results for the “Bacterial Biotransformation” value in [19] and in [20] were “Compound NOT metabolized” and “Compound metabolized”, respectively.

On to `CCOc1ccc2nc(S(N)(=O)=O)sc2c1` [ETHOXZOLAMIDE], for which the “Bacterial Biotransformation” value in data set [1], in data set [2], in data set [3], in data set [4], in data set [5] and in [6] was “Compound NOT metabolized” in each case. Besides, the “Bacterial Biotransformation” value in data set [7] is “Compound metabolized”; in [8], “Compound NOT metabolized”; in [9], “Compound NOT metabolized”; in data set [10], “Compound metabolized”; in data set [11], “Compound NOT metabolized”; in data set [12] it was “Compound NOT metabolized”. The “Bacterial Biotransformation” value was “Compound NOT metabolized” in data set [13]; “Compound NOT metabolized” in [14]; “Compound NOT metabolized” in data set [15]; “Compound NOT metabolized” in data set [16]; “Compound NOT metabolized” in data set [17]; “Compound metabolized” in [18]. The “Bacterial Biotransformation” value in data set [19] and in [20] was “Compound NOT metabolized” in each case.
